pIC50, pKd: −log10 of the molar value. Values after ≈ are worked out from the molar mass of the structure shown. Read-outs that look alike come from different tables or passages of the source.
Experiments:
A549 = assay: Anticancer activity IC50; format: cell-based; settings: Homo sapiens, abstract only
E. Coli BL21 (DE3) = assay: Visualization of Z-ring in bacterial cells (GFP-tagged FtsZ); format: cell-based; settings: 64 μM, 4 h
Method: The assay was carried out using a strain of E.coli BL21 (DE3) containing an IPTG-inducible plasmid, which can produce the green fluorescence protein (GFP)-tagged FtsZ to make the Z-ring visible. An overnight culture of E.coli was replated into 1 mL fresh MHB medium and incubated at 37 °C. Until OD600 = 0.3, 40 μM IPTG (Isopropyl β-D-1-thiogalactopyranoside) was added. […] After that, they were centrifuged and re-suspended in PBS, and then observed using the Leica SP-5 laser scanning confocal microscopy. Z-ring analysis was performed by employing LAS-AF-Lite software 2.6.0.

B. subtilis = assay: Phase-contrast microscopy, cell division inhibition; format: cell-based; settings: 64 μM, 4 h
Method: Cell Division Inhibitory Screening Assay Cell division inhibitory activity of compounds was conducted as below. […] Afterwards, 1 mL of the sample was centrifuged at 15,000× g for 3 min at room temperature, and the bacterial pellets were washed with 1 mL of PBS before re-centrifugation. The final bacterial pellets obtained were resuspended in 5 mL PBS. 20 μL of bacterial suspension was transferred to slides for microscopy. Cell morphology was estimated by using the phase-contrast method of Olympus IX71 microscopy (Olympus Corporation, Tokyo, Japan) with 400× magnification.

S. aureus (ATCC 6538) = assay: MIC, broth microdilution; format: cell-based; settings: Staphylococcus aureus, ATCC6538; broth microdilution, 18 h, 37 °C; read-out: MIC S. aureus (ATCC 6538)
FtsZ protein = target: T1, FtsZ protein (Staphylococcus aureus, UniProt P0A031); assay: Affinity assay by SPR technology; format: binding, S. aureus
T1 construct: His tag; made in house; host or cells: E. coli BL21(DE3)
Method: FtsZ Pre-Enrichment: FtsZ purified protein was dissolved in deionized water and prepared into a 1 g/L protein stock solution. Afterwards, protein concentration was diluted to 50 mg/L, respectively, using four different pH acetate buffer solutions (pH 4.0, 4.5, 5.0, 5.5). Subsequently, samples were injected, and the response values of protein FtsZ under different pH conditions were detected using the Biacore pre-enrichment system to determine the optimal protein coupling conditions.
FtsZ Coupling: Before coupling, the CM5 chip was first activated by EDC/NHS solution for 7 min; then, protein coupling was carried out, with a coupling time of 10 min and a protein flow rate of 10 μL/min; finally, the unreacted active sites on the chip were blocked by ethanolamine for 7 min.
The compounds were dissolved in DMSO, and then diluted to 50 μM with PBS (final concentration of DMSO was 5%). The mobile phase was a PBS solution containing 5% DMSO. The response value of the samples flowing through the surface of the FtsZ protein was analyzed by the Biacore T200 system. The monomer compounds with a higher response value to FtsZ (higher than or equal to the positive control) were screened as candidate compounds.
The concentration of candidate compounds was diluted by gradient with a double ratio, with concentration ranging from 0 to 64 μM (the final concentration of DMSO was 5%). Then, the binding response value was obtained. Kinetic curves were drawn according to the dose–effect relationship between the response value and the concentration of candidate compounds, and the binding specificity of candidate compounds and FtsZ was determined according to the curve fitting. Thus, small molecular monomers that can bind specifically to the FtsZ protein were found.

P. aeruginosa (DSM 939) = assay: MIC, broth microdilution; format: cell-based; settings: Pseudomonas aeruginosa, DSM939; broth microdilution, 18 h, 37 °C; read-out: MIC P. aeruginosa (DSM 939)
Cytotoxicity, CCK8 = format: cell-based; settings: human, 12 h
Method: The absorbance of 450 nm was measured in an ELISA reader (BioTek-Synergy 4, USA). Then, cell viability was calculated, and the corresponding images were drawn with GraphPad Prism 9.

B. subtilis (CICC 21164) = assay: MIC, broth microdilution; format: cell-based; settings: Bacillus subtilis; broth microdilution, 18 h, 37 °C; read-out: MIC B. subtilis (CICC 21164)
Method: MIC assays were carried out by employing the broth microdilution method in accordance with Clinical and Laboratory Standards Institute (CLSI) guidelines. E. coli BNCC337004, S. aureus BNCC336423, P. aeruginosa BNCC337099, and B. subtilis CICC 21164 were applied for the MIC detection. Mueller–Hinton broth (MHB) was used in bacterial culture, and log-phase bacteria were diluted into a 0.5 McFarland Standard suspension, which was then diluted 1000 times again. Subsequently, 100 μL of the obtained bacterial suspension was placed into each well of 96-well microtiter plates, along with 2-fold serial dilutions of compounds (512, 256, 128, 64, 32, 16, 8, 4, 2, 1, 0.5, 0 μM). The microtiter plates were incubated aerobically for 18 h at 37 °C. The MIC was defined as the lowest drug concentration at which no visible turbidity was observed. All experiments are conducted in three parallel.

E. coli (ATCC 8739) = assay: MIC, broth microdilution; format: cell-based; settings: Escherichia coli, ATCC8739; broth microdilution, 18 h, 37 °C; read-out: MIC E. coli (ATCC 8739)
MCF-7 = assay: Antiproliferative activity, CCK8; format: cell-based; settings: Homo sapiens
Method: (§1) Antiproliferative activities of compounds were detected by employing the CCK8 method. HepG2, MCF-7, and Hela cells were cultured to log phase in DMEM medium supplemented with 10% fetal bovine serum. Cells were diluted to 2 × 10^4 cells/mL, and 100 µL of the obtained suspension was seeded in each well of the 96-well microplates, which were then cultured at 37 °C overnight. Subsequently, cells were treated with compounds at different concentrations. After co-culturing for 48 h, wells were washed with PBS three times and filled with 100 μL DMEM complete medium, which contained CCK8. After culturing for 2 h at 37 °C, the absorbance of measured and recorded on an ELISA reader (BioTek-Synergy 4, Winooski, VT, USA) at a test wavelength of 450 nm. Three replicate wells were employed for each drug concentration, and each assay was conducted at least three times.

HepG2 = assay: Antiproliferative activity, CCK8; format: cell-based; settings: Homo sapiens, HepG2, 48 h, read-out: cell viability HepG2
Method: as §1

Hela = assay: Antiproliferative activity, CCK8; format: cell-based; settings: Homo sapiens
Method: as §1

[1] = MCF7, 48 h, read-out: cell viability MCF-7
[2] = 48 h, read-out: cell viability Hela

T1 sequence (P0A031 whole entry): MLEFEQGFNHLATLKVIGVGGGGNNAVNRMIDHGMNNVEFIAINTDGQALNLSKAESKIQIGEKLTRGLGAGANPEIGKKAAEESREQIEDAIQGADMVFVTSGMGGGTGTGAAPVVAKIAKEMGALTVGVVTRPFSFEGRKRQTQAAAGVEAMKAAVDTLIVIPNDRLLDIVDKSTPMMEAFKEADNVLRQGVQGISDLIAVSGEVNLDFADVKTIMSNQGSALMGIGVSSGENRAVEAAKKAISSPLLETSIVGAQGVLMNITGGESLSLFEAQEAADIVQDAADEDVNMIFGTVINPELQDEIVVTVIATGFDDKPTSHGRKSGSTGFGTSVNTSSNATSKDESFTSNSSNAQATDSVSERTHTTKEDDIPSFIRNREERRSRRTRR

In the case of `CC(C)(C)c1[nH]cnc1/C=c1\[nH]c(=O)/c(=C/c2ccccc2)[nH]c1=O` [Compound 23, Plinabulin], the pIC50 (A549) was 7.92, the Z-ring assembly (E. Coli BL21 (DE3)) was “disturbed the Z-ring assembly” and the “cell morphology of B. subtilis (elongation)” value (B. subtilis) was “the most pronounced effect”. The MIC (S. aureus (ATCC 6538)) was 8 µM (≈ 2.69 µg/mL), the pKd (FtsZ protein) was 4.82 and the “Chi^2” value (FtsZ protein; SPR fit) was 0.234. It also gave an Rmax (FtsZ protein; SPR, CM5 chip) of 11.82 RU, an MIC (P. aeruginosa (DSM 939)) of 32 µM (≈ 10.8 µg/mL) and a viability at 100 µM (Cytotoxicity, CCK8; read-out: cell viability HT293 (293T)) of 79%. For the same molecule, the viability at 100 µM (Cytotoxicity, CCK8; read-out: cell viability LO2) was 81%, the MIC (B. subtilis (CICC 21164)) was 8 µM (≈ 2.69 µg/mL) and the MIC (E. coli (ATCC 8739)) was 64 µM (≈ 21.5 µg/mL). For the same molecule, the viability at 0.1 µM (MCF-7; [1]) was 27.5%, the viability at 1 µM (MCF-7; [1]) was 10% and the pIC50 (MCF-7; MCF7, abstract only) was 7.70. For the same molecule, the viability at 0.1 µM (HepG2) was 30.5%, the viability at 1 µM (HepG2) was 11.5% and the viability at 0.1 µM (Hela; [2]) was 26%. For the same molecule, the viability at 1 µM (Hela; [2]) was 19% and the pIC50 (Hela; abstract only) was 8.00.
